Assays:
CYP2C8 [1] = experiment: Metabolic activity of paclitaxel in human cryopreserved hepatocytes: 6α-hydroxypaclitaxel production; conditions: 72 h treatment at 1–10 µM, then paclitaxel 10 µM 60 min
Description: (§1) Plateable and interaction-qualified cryopreserved human hepatocytes (Lonza, Walkersville, MD, USA) were thawed in a hepatocyte thawing medium (Lonza) and then seeded at 5 × 10^4 cells per well in collagen-coated 96-well plates (Corning, Corning, NY, USA) with hepatocyte plating medium (Lonza). After 1 h of incubation with 5% CO2 under saturated humidity at 37 °C, the medium was replaced with fresh plating medium. After 4 h of seeding, the media were replaced with maintenance medium (Lonza) containing Matrigel (0.3 mg/ml).
(§2) After removing the medium containing Matrigel from the cells, the cells were treated with each test compound prepared in a maintenance medium (1, 3, and 10 µM). Rifampicin, a well-known CYP2C8 and CYP3A4 inducer, was used as a positive control and treated under the same conditions. […] To obtain the samples to evaluate mRNA levels, the cells were collected 24 h after drug treatment (n = 3 per test compound). […] The concentration of DMSO in the maintenance medium was 0.1%. A cell viability assay using CellTiter-Glo (Promega, Madison, WI, USA) was used to ensure the absence of cell toxicity during treatment with each compound.

CYP2C8 [2] = experiment: CYP2C8 mRNA expression in human cryopreserved hepatocytes (quantitative PCR); conditions: 24 h, 1, 3 and 10 µM
Description: as §1, §2
RNA isolation and cDNA synthesis were carried out using the Superprep II Cell Lysis & RT Kit (Toyobo, Osaka, Japan) according to the manufacturer’s protocol. […] Data are expressed as fold-changes to the vehicle control.

CYP2C8 [3] = target: T1, CYP2C8 (Homo sapiens, UniProt P10632); experiment: Inhibition of paclitaxel metabolism in human liver microsome fraction: 6α-hydroxypaclitaxel production; conditions: human liver microsomes
T1 sequence (P10632 1-490): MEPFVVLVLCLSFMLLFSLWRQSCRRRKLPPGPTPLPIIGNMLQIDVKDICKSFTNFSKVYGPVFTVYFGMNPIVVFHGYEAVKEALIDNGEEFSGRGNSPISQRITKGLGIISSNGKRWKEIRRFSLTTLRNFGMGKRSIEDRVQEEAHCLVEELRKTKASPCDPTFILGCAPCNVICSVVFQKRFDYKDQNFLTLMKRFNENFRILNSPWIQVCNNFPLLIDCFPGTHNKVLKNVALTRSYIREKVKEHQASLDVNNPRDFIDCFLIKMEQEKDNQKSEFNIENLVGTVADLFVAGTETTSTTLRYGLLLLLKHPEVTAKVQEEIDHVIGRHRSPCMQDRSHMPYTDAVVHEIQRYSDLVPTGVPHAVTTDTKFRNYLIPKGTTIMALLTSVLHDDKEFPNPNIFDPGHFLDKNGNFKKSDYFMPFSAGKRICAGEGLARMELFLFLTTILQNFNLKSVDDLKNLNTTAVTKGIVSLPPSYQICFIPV
Description: (§3) Then, 10 µl of 10 mM β-NADPH (Oriental Yeast Co., Ltd., Tokyo, Japan) was added, mixed, and incubated at 37 °C for 140 min. The reaction was stopped by adding 100 µl of ethanol containing 40 µM BHB as an internal standard into the reactant and mixing vigorously. After centrifugation (15,000 × g, 7 min), 10 µl of the supernatant was analyzed using HPLC–MS/MS (Quattro Premier XE, Waters, Milford, MA, USA). The mass spectrometer used an electrospray ionization source in the positive ion mode with multiple reaction monitoring. The analytical column was an Inertsil ODS-4 (2.1 mm i.d. × 100 mm, 3 µm) (GL Sciences Inc., Tokyo, Japan). The mobile phase was delivered using a linear gradient elution system consisting of 0.5% formic acid (A): acetonitrile containing 0.5% formic acid (B), at a flow rate of 0.2 ml/min, with the following gradient profile: 40% B (0 min), increasing from 40 to 70% (0–6 min), and 70% B (6–8 min).

CYP3A4 = CYP3A4 (Homo sapiens, UniProt P08684); experiment: Inhibition of paclitaxel metabolism in human liver microsome fraction: 3'-p-hydroxypaclitaxel production; conditions: human liver microsomes
Description: as §3

[4] = set-up: method as in PMID 30974202; conditions: rats, oral extract of processed Aconite root 1 g/kg as original crude drug; cited from earlier work
[5] = any concentration from 0.050 to 50 µM
[6] = human, pH 7.4, probe paclitaxel (6α-hydroxypaclitaxel formation)

Sequence of CYP3A4 (P08684 whole entry): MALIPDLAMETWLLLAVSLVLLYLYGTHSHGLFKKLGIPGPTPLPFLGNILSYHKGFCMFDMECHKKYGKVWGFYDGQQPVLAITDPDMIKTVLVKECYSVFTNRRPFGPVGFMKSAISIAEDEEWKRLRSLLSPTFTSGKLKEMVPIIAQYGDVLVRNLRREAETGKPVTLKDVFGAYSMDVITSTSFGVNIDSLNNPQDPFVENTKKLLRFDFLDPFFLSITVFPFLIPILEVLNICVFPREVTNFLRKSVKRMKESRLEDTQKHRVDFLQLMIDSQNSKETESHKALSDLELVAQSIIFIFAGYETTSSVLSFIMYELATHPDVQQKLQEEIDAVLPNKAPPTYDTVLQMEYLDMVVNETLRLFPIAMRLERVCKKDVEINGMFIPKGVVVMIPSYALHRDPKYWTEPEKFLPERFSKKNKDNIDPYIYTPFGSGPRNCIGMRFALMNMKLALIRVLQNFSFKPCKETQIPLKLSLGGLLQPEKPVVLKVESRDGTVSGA

Compound: CO[C@H]1/C=C/O[C@@]2(C)Oc3c(C)c(O)c4c(O)c(c(/C=N/N5CCN(C)CC5)c(O)c4c3C2=O)NC(=O)/C(C)=C\C=C\[C@H](C)[C@H](O)[C@@H](C)[C@@H](O)[C@@H](C)[C@H](OC(C)=O)[C@@H]1C [Rifampicin, rifampicin]
- effect on production of 6α-hydroxypaclitaxel by human hepatocytes (CYP2C8 [1]): significantly induced
- effect on CYP2C8 mRNA expression (CYP2C8 [2]): significantly induced

Compound: OC[C@H]1O[C@@H](O[C@@H]2OC=C[C@H]3[C@H](O)[C@@H]4O[C@]4(CO)[C@@H]23)[C@H](O)[C@@H](O)[C@@H]1O [catalpol]
- effect on production of 6α-hydroxypaclitaxel (CYP2C8 [3]; at 50 µM): significantly induced

Compound: O=C(O)C1=CO[C@@H](O[C@@H]2O[C@H](CO)[C@@H](O)[C@H](O)[C@H]2O)[C@@H]2C(CO)=CC[C@H]12 [geniposidic acid]
- effect on production of 3'-p-hydroxypaclitaxel (CYP3A4; at 50 µM): induced
- effect on production of 6α-hydroxypaclitaxel (CYP2C8 [3]; at 50 µM): significantly induced

Compound: COC(=O)C1=CO[C@@H](O[C@@H]2O[C@H](CO)[C@@H](O)[C@H](O)[C@H]2O)[C@@H]2[C@@H](C)[C@@H](O)C[C@H]12 [loganin]
- effect on production of 6α-hydroxypaclitaxel (CYP2C8 [3]; at 50 µM): significantly induced

Compound: C[C@@]12C[C@@]3(O)O[C@@H](O1)[C@]1(COC(=O)c4ccccc4)[C@H]3C[C@@]12O[C@@H]1O[C@H](CO)[C@@H](O)[C@H](O)[C@H]1O [paeoniflorin]
- effect on paclitaxel metabolism (3'-p-hydroxypaclitaxel production) (CYP3A4; [5]): did not affect
- effect on paclitaxel metabolism (6α-hydroxypaclitaxel production) (CYP2C8 [3]; [5]): did not affect

Compound: O=c1c(O)c(-c2ccc(O)c(O)c2)oc2cc(O)cc(O)c12 [quercetin]
- activity at 140 min, 0.3 µM (CYP2C8 [3]; [6]): 49%
- activity at 140 min, 3 µM (CYP2C8 [3]; [6]): 29%

Compound: neoline
- induction ratio of 3'-p-hydroxypaclitaxel production (CYP3A4; at 5 µM): less than 10%
- effect on production of 3'-p-hydroxypaclitaxel (CYP3A4; at 5.0 µM): significantly induced
- effect on production of 3'-p-hydroxypaclitaxel (CYP3A4; at 50 µM): significantly inhibited
- induction ratio of 6α-hydroxypaclitaxel production (CYP2C8 [3]; at 5 µM): less than 10%
- effect on production of 6α-hydroxypaclitaxel (CYP2C8 [3]; at 5.0 µM): significantly induced
- maximum blood concentration of neoline [4]: approximately 80 nM

Source: paper PMC8732799 (Journal of Natural Medicines, 2021)
